In US12617818B2, “Compositions and methods for modulating myosin subfragment-2 coiled coil stability and methods for using them” (UNIVERSITY OF NORTH TEXAS, priority 2020, dated 2026):
Values joined by “and” are separate entries in the source; they are usually repeats but may differ in a detail not shown here. Equal entries are not always repeated.

Key:
[1] = target: T1, human cardiac myosin S2 peptide (Homo sapiens, UniProt P12883); assay: Competitive ELISA (cELISA) against polyclonal anti-S2 antibody; assay type: binding; settings: curve fit of OD vs peptide concentration; read-out: binding efficiency (Kd) to human cardiac myosin S2 peptide
T1 construct: The 19 residue peptide was chemically synthesized
Protocol: Phosphate buffer saline (PBS) contained 0.14 M sodium chloride, 2.7 mM potassium chloride, 1.5 mM potassium phosphate monobasic, and 8.1 mM sodium phosphate dibasic with pH 7.4. Detergent buffer was made with 0.05% triton X-100 in PBS, blocking buffer was made with 3% powdered milk in detergent buffer. Assay buffer contained 100 mM potassium phosphate dibasic, 100 mM potassium phosphate monobasic, 1 M potassium chloride and 10 mM magnesium chloride with pH 7.0. Stocks of primary antibody (polyclonal antibody anti-S2), rabbit skeletal myosin, human cardiac myosin S2 peptide, stabilizer and destabilizer peptide. Secondary antibody conjugated with alkaline phosphatase was anti-guinea pig immunoglobulin G (IgG)-alkaline phosphatase (Sigma-Aldrich, catalog number A5062) produced in goat and isolated by affinity chromatography. Substrate was 5-Bromo-4-chloro-3-indolyl phosphate (BCIP) tablets dissolved in 10 ml of distilled water per tablet and 96 well microtiter plate.
Competitive Enzyme Linked Immunosorbent Assay (cELISA) is a classical immunochemical test to validate the binding efficiency and specificity in lower molar concentrations (Yorde et al., 1976; Voller et al., 1978; Walker, J. M. 1996). In this assay the polyclonal antibody anti-S2 raised against single alpha helix of myosin S2 would be used to compete with stabilizer or destabilizer peptide to bind myosin S2 in rabbit skeletal myosin molecule as well as small human cardiac myosin S2 peptide. This cELISA, thus have two molecules polyclonal anti-S2 and stabilizer peptide which have two binding sites one on rabbit skeletal myosin and the other one being on small human cardiac myosin S2. Since both polyclonal anti-S2 and stabilizer peptide were designed against human β-cardiac myosin S2 they both would have a stronger affinity towards the smaller human β-cardiac myosin S2 peptide against the myosin S2 on rabbit skeletal myosin.
To test the binding specificity and efficiency of stabilizer or destabilizer peptide the following setup was used. Start of the setup would be to coat the wells with rabbit skeletal myosin molecule and add appropriate amount human cardiac myosin S2 peptide that would bind the primary polyclonal anti-S2 antibody and when washed there won't be enough primary polyclonal anti-S2 antibody to bind myosin S2 of rabbit skeletal myosin adsorbed on the wells. When alkaline phosphatase conjugated secondary antibody is added on to the wells, it won't have enough or none primary polyclonal anti-S2 antibody to bind. After addition of color developing BCIP substrate to the wells it would lead to low or no color development leading to lower optical density (OD). […]

[2] = system: rabbit skeletal myosin HMM; assay: In vitro motility assay of actin thin filaments over myosin HMM; assay type: biochemical
Text: In vitro motility assay a classic method to determine the sliding velocity of actin thin filaments over immobilized myosin in the presence of ATP (Kron et al., 1991). The assay involves the immobilization of myosin either in thick filament assembly or through individual myosin molecule on a nitrocellulose or dichlorodimethylsilane treated coverslip. Fluorescently labelled actin thin filament is allowed to slide across the bound myosin molecule upon addition of ATP. Sliding of actin over myosin treated with myosin S2 binding proteins would establish their effect over acto-myosin interaction and overall force produced. Myosin heavy meromyosin would be enough to test the effect of stabilizer and destabilizer over the acto-myosin interaction, however to test the effect of MyBPC over myosin reconstituted in its thick filament form would be required since MyBPC binds to both light meromyosin and myosin S2. Myosin in its thick filament form will improve the binding of MyBPC to a myosin molecule rather than a single myosin molecule immobilized on a glass surface.
Rabbit skeletal myosin is dialyzed against buffer containing 0.5 M potassium chloride and 10 mM imidazole with pH 7.0 overnight to remove the impurities. Dialyzed myosin undergoes trypsin digestion with 1 mM magnesium chloride and α-chymotrypsin, digestion was stopped after addition of phenylmethylsulfonylfluoride in methanol at room temperature. Tryptic digest of myosin is dialyzed overnight at 4° C. against buffer containing 0.04 M potassium chloride and 10 mM imidazole with pH 7.0. Dialyzed tryptic digest of myosin is centrifuged at 21000 g for 60 minutes at 4° C. to yield myosin heavy meromyosin in the supernatant. This myosin heavy meromyosin achieved has a mixture of ATP sensitive and ATP insensitive heads. To purify myosin heavy meromyosin with ATP sensitive myosin S1 heads, F actin is added at an equimolar concentration to the unpurified myosin heavy meromyosin extract along with 1 mM ATP and magnesium chloride. Low salt assay buffer (25 mM potassium chloride, 10 mM imidazole, 2 mM magnesium chloride and 10 mM dithioerythritol with pH 7.0) was used as mixing solvent for the myosin heavy meromyosin purification step. Purified myosin heavy meromyosin with ATP sensitive heads are suspended in the supernatant when unpurified myosin heavy meromyosin with F actin, ATP and magnesium chloride is centrifuged with the speed of 21000 g at 4° C. ATP insensitive heads will bind F actin irreversibly thus forming the precipitate in the centrifugation step. Purified myosin heavy meromyosin with ATP sensitive heads are ready for the in vitro motility assay.
Rhodamine phalloidin labelling of F-actin F-actin and rhodamine phalloidin are mixed in 1:5 micro molar concentration ratio with low salt assay buffer. Rhodamine phalloidin binds in between the grooves of actin subunits of F-actin. The mixture of F-actin and rhodamine phalloidin is allowed to incubate overnight at 4° C. to allow maximal labelling of F-actin.
Glass coverslips are coated with freshly prepared 2% dichlorodimethylsilane in chloroform. Perfusion chamber is created by two halves of glass coverslips on a clean glass slide with help of vacuum grease. The perfusion chamber is then sealed with dichlorodimethylsilane treated coverslip with two side open to allow perfusion of buffer from one end and wicking on the opposite end. First step in preparation of slide is to immobilize either purified myosin heavy meromyosin or myosin thick filaments. These purified products are diluted with low salt assay buffer to achieve a final concentration of 0.1 μM before adding them in to perfusion chamber. Myosin heavy meromyosin or myosin thick filaments are allowed to immobilize on dichloro-dimethylsilane treated coverslip for a minute. Unbound myosin is washed away by low salt assay buffer once and multiple washes with assay buffer mixed with 0.5 mg/ml bovine serum albumin (AB-BSA) blocks the unbound protein. […]

SMILES | Kd [1] | Average velocity of actin thin filaments ([2]; 20 nM peptide) [microns/second] | Average velocity of actin thin filaments ([2]; 100 nM peptide) [microns/second] | velocity distribution of actin thin filaments (histogram) ([2]; 20 nM and 100 nM peptide) [microns/second] | rise of motility of actin thin filaments ([2]; vs control) [%]
C[C@H](NC(=O)[C@H](CCCCN)NC(=O)[C@H](Cc1ccccc1)NC(=O)[C@H](CCCCN)NC(=O)[C@H](CCCCN)NC(=O)[C@H](CCCCN)NC(=O)[C@H](CCCCN)NC(=O)[C@H](CCCCN)NC(=O)[C@H](CCCCN)NC(=O)[C@H](CCCCN)NC(=O)[C@@H](N)CCCCN)C(=O)N[C@@H](CCCCN)C(=O)N[C@@H](CCCCN)C(=O)N[C@@H](CCCCN)C(=O)N[C@@H](CCCCN)C(=O)N[C@@H](CCCCN)C(=O)N[C@@H](CCCCN)C(=O)O [Stabilizer] | 1 nM | 6.18±0.28 | 6.21±0.14 | – | –
CSCC[C@H](NC(=O)[C@H](CCC(=O)O)NC(=O)[C@H](CCCNC(=N)N)NC(=O)[C@H](CCC(=O)O)NC(=O)[C@H](CC(=O)O)NC(=O)[C@H](CCC(=O)O)NC(=O)[C@H](CC(C)C)NC(=O)[C@H](CCCNC(=N)N)NC(=O)[C@H](CCC(=O)O)NC(=O)[C@H](CC(N)=O)NC(=O)[C@H](CCSC)NC(=O)[C@@H](N)CCC(=O)O)C(=O)N[C@@H](CCCCN)C(=O)N[C@@H](C)C(=O)N[C@@H](CCC(=O)O)C(=O)N[C@@H](CC(C)C)C(=O)N[C@H](C(=O)N[C@@H](C)C(=O)N[C@@H](CCCCN)C(=O)O)[C@@H](C)O [Destabilizer] | 6 nM and 1 nM | 8.22±0.254 | 8.39±0.397 | ~8.0 | 18
